From US20180251847A1, “METHOD OF PREDICTING THE TUMOR RESPONSE TO DNA METHYLATION INHIBITORS AND ALTERNATIVE THERAPEUTIC REGIMEN FOR OVERCOMING RESISTANCE” (PALACKY UNIVERSITY, OLOMOUC, priority 2014, published 2018)
Structures can show the parent of a compound that is named as a salt. Where two headings read alike, the source gives them in different places.

Columns and labels:
Parameters in all cases: species or system human
R2.1 (HCT116-RDAC) = assay: MTT based cell survival assay, DAC resistant HCT116 clone R2.1; details: for IC50: R2.1, MTT, 72 h drug treatment; for fold change (resistance index): IC50 R2.1 / IC50 HCT116
Experimental: (§1) The DAC resistant HCT116 cell lines were developed using two methods.
(§2) The method is primarily based on reduction of yellow colored tetrazolium salt, 3-(4,5-dimethylthiazol-2-yl)-2,5-diphenyltetrazolium bromide (MTT) to insoluble purple colored formazan crystals by NAD(P)H-dependent oxidoreductase enzymes in mitochondria of the viable cell.
(§3) Cells in 80 μL of medium were plated in each of the experimental and the control wells, followed by addition of 20 μL medium with five-fold drug concentration to experimental wells. The wells with medium alone were included alongside as blank for absorbance readings. After 72 h of drug treatment, 10 μL MTT (Sigma-Aldrich) prepared in 1×PBS (5 mg/mL) was added to all wells including blank and control, and incubated until the purple formazan crystals were visible after which 100 μL of detergent (10% SDS, pH: 5.5) was added and the plates were incubated overnight to solubilize the formazan and the cellular material.
(§4) Cross resistance was determined as the fold increase, whereas, the sensitivity was determined as the fold decrease in the IC50 of the drugs for the resistant cell lines compared to their genetically identical drug sensitive counterpart.

HCT116 = assay: MTT based cell survival assay, parental HCT116; details: read-out: Mean IC50
Experimental: To study the mechanism of resistance towards DNA methylation inhibitor, 2′-deoxy-5-azacytidine, we used the human colorectal cancer cell line (HCT116), human promyelocytic leukemia cells (HL-60), and human breast adenocarcinoma cell line (MCF-7) obtained from American Type Culture Collection (Manassas, Va.). The cell lines were cultured in complete growth media (Sigma-Aldrich, St. Louis, Mo.), supplemented with fetal bovine serum (FBS, PAN-Biotech GmbH, Aidenbach, Germany), 100 U/mL penicillin (Biotika, Slovenská L'upča, Slovak Republic) and 50 μg/mL streptomycin (Sigma-Aldrich), and the cultures were maintained at 37° C. and 5% CO2, in a humidified incubator. The cell line, HCT116 was grown in McCoy's 5 A medium supplemented with 10% FBS and 3 mM L-glutamine (Sigma-Aldrich), HL-60 was grown in Iscove's Modified Dulbecco's Medium with 20% FBS, and MCF-7 was grown in RPMI-1640 medium with 10% FBS.
as §2, with “cell. The intensity of the purple color produced on solubilization of the formazan crystals is directly proportional to the number of viable cells (Meerloo J. V. et al., Methods in Molecular Biology 2011; 731, 237-45).” for “cell.”
as §3, with “To determine the IC50 of the epigenetic drugs (Tocris Bioscience, Bristol, United Kingdom), four independent experiments were performed using triplicate wells of 96 well plates. Cells” for “Cells”, “[…],” for “After 72 h of drug treatment,”
as §4

R1.2 (HCT116-RDAC) = assay: MTT based cell survival assay, DAC resistant HCT116 clone R1.2; details: for IC50: read-out: Mean IC50; for fold change (resistance index): IC50 R1.2 / IC50 HCT116
Experimental: as §1, §2, §3, §4

R1.1 (HCT116-RDAC) = assay: MTT based cell survival assay, DAC resistant HCT116 clone R1.1; details: for IC50: read-out: Mean IC50; for fold change (resistance index): IC50 R1.1 / IC50 HCT116
Experimental: as §1, §2, §3, §4

R1.3 (HCT116-RDAC) = assay: MTT based cell survival assay, DAC resistant HCT116 clone R1.3; details: for IC50: read-out: Mean IC50; for fold change (resistance index): IC50 R1.3 / IC50 HCT116
Experimental: as §1, §2, §3, §4

R2.2 (HCT116-RDAC) = assay: MTT based cell survival assay, DAC resistant HCT116 clone R2.2; details: for IC50: read-out: Mean IC50; for fold change (resistance index): IC50 R2.2 / IC50 HCT116
Experimental: as §1, §2, §3, §4

R1.4 (HCT116-RDAC) = assay: MTT based cell survival assay, DAC resistant HCT116 clone R1.4; details: for IC50: read-out: Mean IC50; for fold change (resistance index): IC50 R1.4 / IC50 HCT116
Experimental: as §1, §2, §3, §4

[1] = Homo sapiens, HCT-116, HCT116 parental, MTT, 72 h drug treatment
[2] = Homo sapiens, HCT-116, R1.2, MTT, 72 h drug treatment
[3] = Homo sapiens, HCT-116, R1.1, MTT, 72 h drug treatment
[4] = Homo sapiens, HCT-116, R1.3, MTT, 72 h drug treatment
[5] = Homo sapiens, HCT-116, R2.2, MTT, 72 h drug treatment
[6] = Homo sapiens, HCT-116, R1.4, MTT, 72 h drug treatment
[7] = HCT116 parental, MTT, 72 h drug treatment

Row | SMILES | IC50 (R2.1 (HCT116-RDAC); Homo sapiens, HCT-116) [µM] | fold change (resistance index) (R2.1 (HCT116-RDAC)) | IC50 (HCT116; [1]) [µM] | IC50 (R1.2 (HCT116-RDAC); [2]) [µM] | fold change (resistance index) (R1.2 (HCT116-RDAC)) | IC50 (R1.1 (HCT116-RDAC); [3]) [µM] | fold change (resistance index) (R1.1 (HCT116-RDAC)) | IC50 (R1.3 (HCT116-RDAC); [4]) [µM] | fold change (resistance index) (R1.3 (HCT116-RDAC)) | IC50 (R2.2 (HCT116-RDAC); [5]) [µM] | fold change (resistance index) (R2.2 (HCT116-RDAC)) | IC50 (R1.4 (HCT116-RDAC); [6]) [µM] | fold change (resistance index) (R1.4 (HCT116-RDAC)) | IC50 (R2.1 (HCT116-RDAC)) [µM] | IC50 (HCT116; [7]) [µM] | IC50 (R1.2 (HCT116-RDAC); R1.2, MTT, 72 h drug treatment) [µM] | IC50 (R1.1 (HCT116-RDAC); R1.1, MTT, 72 h drug treatment) [µM] | IC50 (R1.3 (HCT116-RDAC); R1.3, MTT, 72 h drug treatment) [µM] | IC50 (R2.2 (HCT116-RDAC); R2.2, MTT, 72 h drug treatment) [µM] | IC50 (R1.4 (HCT116-RDAC); R1.4, MTT, 72 h drug treatment) [µM] | further results
1 | Nc1ncn([C@@H]2O[C@H](CO)[C@@H](O)[C@H]2O)c(=O)n1 [AZA, 5-azacytidine] | 12.3 | (4.07) fold | 3.02 | 11.7 | (3.87) fold | 9.36 | (3.10) fold | 10.6 | (3.50) fold | 14.5 | (4.19) fold | 14.9 | (4.92) fold | – | – | – | – | – | – | – | –
2 | C/C=C1\NC(=O)[C@H]2CSSCC/C=C/[C@H](CC(=O)N[C@H](C(C)C)C(=O)N2)OC(=O)[C@H](C(C)C)NC1=O [Romidepsin] | 0.0054 | (1.95) fold | – | – | (1.77) fold | – | (1.14) fold | – | (1.18) fold | – | (2.64) fold | – | (1.14) fold | – | – | – | – | – | – | – | IC50 (HCT116; Homo sapiens, HCT-116, 72 h): 0.0028 µM; IC50 (R1.2 (HCT116-RDAC); Homo sapiens, HCT-116, 72 h): 0.0049 µM; IC50 (R1.1 (HCT116-RDAC); Homo sapiens, HCT-116, 72 h): 0.0031 µM; IC50 (R1.3 (HCT116-RDAC); Homo sapiens, HCT-116, 72 h): 0.0033 µM; IC50 (R2.2 (HCT116-RDAC); Homo sapiens, HCT-116, 72 h): 0.0073 µM; IC50 (R1.4 (HCT116-RDAC); Homo sapiens, HCT-116, 72 h): 0.0031 µM
3 | O=C(O)c1ccc(O)c2ncccc12 [IOX1] | – | (1.70) fold | – | – | (2.15) fold | – | (1.41) fold | – | (1.80) fold | – | (1.93) fold | – | (1.96) fold | 50.2 | 29.6 | 63.6 | 41.6 | 53.2 | 57 | 58.1 | –
4 | Cl.Nc1nccc2c1ncn2[C@@H]1C=C(CO)[C@@H](O)[C@H]1O [DZNep, 3-Deazaneplanocin A hydrochloride] | – | (30.34) fold | – | – | (30.34) fold | – | (30.34) fold | – | (30.34) fold | – | (30.34) fold | – | (30.34) fold | – | 0.82 | – | – | – | – | – | –
5 | CC1=NN(c2ccc(C(=O)O)cc2)C(=O)/C1=C\c1ccc(-c2cc(C)c(C)cc2[N+](=O)[O-])o1 [C646] | – | (1.52) fold | – | – | (1.51) fold | – | (1.35) fold | – | (1.42) fold | – | (1.64) fold | – | (1.53) fold | 51 | 33.5 | 50.6 | 45.1 | 47.5 | 55 | 51.3 | –
6 | O=c1ncccn1[C@@H]1O[C@H](CO)[C@@H](O)[C@H]1O [Zebularine] | ≥ 100 | (1.19) fold | 84.2 | ≥ 100 | (1.19) fold | ≥ 100 | (1.19) fold | ≥ 100 | (1.19) fold | ≥ 100 | (1.19) fold | ≥ 100 | (1.19) fold | – | – | – | – | – | – | – | –
7 | CCCCCCCCCCCCCCCc1cccc(O)c1C(=O)O [Ancardic acid, Anacardic acid] | – | (1.03) fold | – | – | (1.06) fold | – | (1.07) fold | – | (1.04) fold | – | (1.04) fold | – | (1.02) fold | 124 | 120 | 127 | 128 | 125 | 125 | 122 | –
8 | COc1cc2c(cc1-c1c(C)noc1C)ncc1[nH]c(=O)n([C@H](C)c3ccccn3)c12 [I-BET 151, I-BET 151 hydrochloride] | 3.16 | – | – | – | – | – | – | – | – | – | – | – | – | – | – | – | – | – | – | – | fold change (sensitivity index) (R2.1 (HCT116-RDAC); IC50 HCT116 / IC50 R2.1): (1.65) fold; IC50 (HCT116; Homo sapiens, HCT-116, 72 h): 5.23 µM; IC50 (R1.2 (HCT116-RDAC); Homo sapiens, HCT-116, 72 h): 5.18 µM; fold change (sensitivity index) (R1.2 (HCT116-RDAC); IC50 HCT116 / IC50 R1.2): (1.01) fold; IC50 (R1.1 (HCT116-RDAC); Homo sapiens, HCT-116, 72 h): 2.68 µM; fold change (sensitivity index) (R1.1 (HCT116-RDAC); IC50 HCT116 / IC50 R1.1): (1.95) fold; IC50 (R1.3 (HCT116-RDAC); Homo sapiens, HCT-116, 72 h): 1.6 µM; fold change (sensitivity index) (R1.3 (HCT116-RDAC); IC50 HCT116 / IC50 R1.3): (3.28) fold; IC50 (R2.2 (HCT116-RDAC); Homo sapiens, HCT-116, 72 h): 5.4 µM; fold change (sensitivity index) (R2.2 (HCT116-RDAC); IC50 HCT116 / IC50 R2.2): (0.97) fold; IC50 (R1.4 (HCT116-RDAC); Homo sapiens, HCT-116, 72 h): 3.58 µM; fold change (sensitivity index) (R1.4 (HCT116-RDAC); IC50 HCT116 / IC50 R1.4): (1.46) fold
9 | COc1cc2nc(N3CCCN(C)CC3)nc(NC3CCN(Cc4ccccc4)CC3)c2cc1OC [BIX-01294] | 3.4 | (1.33) fold | 2.55 | 3.02 | (1.19) fold | 3 | (1.17) fold | 2.97 | (1.16) fold | 3.22 | (1.26) fold | 3.05 | (1.20) fold | – | – | – | – | – | – | – | –
10 | CCOC(=O)CCNc1cc(N2CCc3ccccc3CC2)nc(-c2ccccn2)n1 [GSK J4] | – | (2.11) fold | – | – | (1.30) fold | – | (1.52) fold | – | (1.39) fold | – | (1.87) fold | – | (1.34) fold | 4.81 | 2.28 | 2.95 | 3.45 | 3.18 | 4.25 | 3.05 | –
